Source: ChEMBL document CHEMBL5360570, “Discovery of pyrazolo[3,4-b]pyridine derivatives as novel and potent Mps1 inhibitors for the treatment of cancer” (Eur J Med Chem, 2023)

How the values were obtained:
[1] = target: ALK tyrosine kinase receptor (Homo sapiens) (UniProt Q9UM73); experiment: Inhibition of ALK (unknown origin) assessed as residual activity at 1 uM relative to control
[2] = target: Tyrosine-protein kinase JAK3 (Homo sapiens) (UniProt P52333); experiment: Inhibition of JAK3 (unknown origin) assessed as residual activity at 1 uM relative to control
[3] = target: Macrophage colony-stimulating factor 1 receptor (Homo sapiens) (UniProt P07333); experiment: Inhibition of FMS (unknown origin) assessed as residual activity at 1 uM relative to control
Macrophage colony-stimulating factor 1 receptor (Homo sapiens), sequence (P07333 whole entry): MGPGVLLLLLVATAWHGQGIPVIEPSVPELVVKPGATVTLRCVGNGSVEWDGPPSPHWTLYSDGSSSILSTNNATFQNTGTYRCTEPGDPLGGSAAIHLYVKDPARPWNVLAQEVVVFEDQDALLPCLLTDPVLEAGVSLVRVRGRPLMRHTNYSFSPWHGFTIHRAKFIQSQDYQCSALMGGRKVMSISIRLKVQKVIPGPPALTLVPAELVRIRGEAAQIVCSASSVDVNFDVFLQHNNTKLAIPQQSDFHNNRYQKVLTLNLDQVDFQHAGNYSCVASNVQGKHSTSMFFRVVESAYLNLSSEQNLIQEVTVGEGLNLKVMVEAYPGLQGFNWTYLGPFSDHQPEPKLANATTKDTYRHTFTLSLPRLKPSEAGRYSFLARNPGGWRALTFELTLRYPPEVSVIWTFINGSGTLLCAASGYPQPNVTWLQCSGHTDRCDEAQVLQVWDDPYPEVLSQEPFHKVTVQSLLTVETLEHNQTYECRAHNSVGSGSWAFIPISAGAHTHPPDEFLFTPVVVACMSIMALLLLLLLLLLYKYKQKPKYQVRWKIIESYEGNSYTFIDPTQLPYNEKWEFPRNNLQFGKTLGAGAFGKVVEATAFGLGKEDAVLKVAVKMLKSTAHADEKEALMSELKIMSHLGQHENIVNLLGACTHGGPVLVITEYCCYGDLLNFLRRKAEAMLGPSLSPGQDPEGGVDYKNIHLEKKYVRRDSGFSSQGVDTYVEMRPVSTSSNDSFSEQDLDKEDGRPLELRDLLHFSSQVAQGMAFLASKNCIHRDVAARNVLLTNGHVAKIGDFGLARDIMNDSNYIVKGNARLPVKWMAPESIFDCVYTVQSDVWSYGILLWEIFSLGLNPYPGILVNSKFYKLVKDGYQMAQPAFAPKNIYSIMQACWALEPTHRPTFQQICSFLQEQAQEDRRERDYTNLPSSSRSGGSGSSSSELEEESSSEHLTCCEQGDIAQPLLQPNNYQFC

[4] = target: Tyrosine-protein kinase FRK (Homo sapiens) (UniProt P42685); experiment: Inhibition of PTK5 (unknown origin) assessed as residual activity at 1 uM relative to control
Tyrosine-protein kinase FRK (Homo sapiens), sequence (P42685 whole entry): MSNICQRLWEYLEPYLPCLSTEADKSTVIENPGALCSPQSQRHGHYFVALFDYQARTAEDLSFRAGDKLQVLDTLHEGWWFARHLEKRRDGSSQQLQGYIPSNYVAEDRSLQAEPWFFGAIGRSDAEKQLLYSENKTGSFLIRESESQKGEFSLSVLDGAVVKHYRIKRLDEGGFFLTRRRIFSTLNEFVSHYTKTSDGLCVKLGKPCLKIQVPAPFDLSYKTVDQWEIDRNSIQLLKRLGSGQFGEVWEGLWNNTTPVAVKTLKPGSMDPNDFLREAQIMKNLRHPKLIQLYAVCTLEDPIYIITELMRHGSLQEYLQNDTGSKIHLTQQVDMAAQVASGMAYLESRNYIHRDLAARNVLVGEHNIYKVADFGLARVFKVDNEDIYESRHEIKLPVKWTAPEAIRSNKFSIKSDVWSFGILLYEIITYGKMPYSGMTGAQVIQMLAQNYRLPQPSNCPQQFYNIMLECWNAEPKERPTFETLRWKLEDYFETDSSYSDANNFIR

[5] = target: Leucine-rich repeat serine/threonine-protein kinase 2 (Homo sapiens) (UniProt Q5S007); experiment: Inhibition of LRRK2 (unknown origin) assessed as residual activity at 1 uM relative to control
[6] = system: ALK tyrosine kinase receptor (Homo sapiens), Q9UM73 [F1174L]; experiment: Inhibition of ALK F1174L mutant (unknown origin) assessed as residual activity at 1 uM relative to control
ALK tyrosine kinase receptor (Homo sapiens), Q9UM73 [F1174L], sequence (Q9UM73 whole entry F1174L): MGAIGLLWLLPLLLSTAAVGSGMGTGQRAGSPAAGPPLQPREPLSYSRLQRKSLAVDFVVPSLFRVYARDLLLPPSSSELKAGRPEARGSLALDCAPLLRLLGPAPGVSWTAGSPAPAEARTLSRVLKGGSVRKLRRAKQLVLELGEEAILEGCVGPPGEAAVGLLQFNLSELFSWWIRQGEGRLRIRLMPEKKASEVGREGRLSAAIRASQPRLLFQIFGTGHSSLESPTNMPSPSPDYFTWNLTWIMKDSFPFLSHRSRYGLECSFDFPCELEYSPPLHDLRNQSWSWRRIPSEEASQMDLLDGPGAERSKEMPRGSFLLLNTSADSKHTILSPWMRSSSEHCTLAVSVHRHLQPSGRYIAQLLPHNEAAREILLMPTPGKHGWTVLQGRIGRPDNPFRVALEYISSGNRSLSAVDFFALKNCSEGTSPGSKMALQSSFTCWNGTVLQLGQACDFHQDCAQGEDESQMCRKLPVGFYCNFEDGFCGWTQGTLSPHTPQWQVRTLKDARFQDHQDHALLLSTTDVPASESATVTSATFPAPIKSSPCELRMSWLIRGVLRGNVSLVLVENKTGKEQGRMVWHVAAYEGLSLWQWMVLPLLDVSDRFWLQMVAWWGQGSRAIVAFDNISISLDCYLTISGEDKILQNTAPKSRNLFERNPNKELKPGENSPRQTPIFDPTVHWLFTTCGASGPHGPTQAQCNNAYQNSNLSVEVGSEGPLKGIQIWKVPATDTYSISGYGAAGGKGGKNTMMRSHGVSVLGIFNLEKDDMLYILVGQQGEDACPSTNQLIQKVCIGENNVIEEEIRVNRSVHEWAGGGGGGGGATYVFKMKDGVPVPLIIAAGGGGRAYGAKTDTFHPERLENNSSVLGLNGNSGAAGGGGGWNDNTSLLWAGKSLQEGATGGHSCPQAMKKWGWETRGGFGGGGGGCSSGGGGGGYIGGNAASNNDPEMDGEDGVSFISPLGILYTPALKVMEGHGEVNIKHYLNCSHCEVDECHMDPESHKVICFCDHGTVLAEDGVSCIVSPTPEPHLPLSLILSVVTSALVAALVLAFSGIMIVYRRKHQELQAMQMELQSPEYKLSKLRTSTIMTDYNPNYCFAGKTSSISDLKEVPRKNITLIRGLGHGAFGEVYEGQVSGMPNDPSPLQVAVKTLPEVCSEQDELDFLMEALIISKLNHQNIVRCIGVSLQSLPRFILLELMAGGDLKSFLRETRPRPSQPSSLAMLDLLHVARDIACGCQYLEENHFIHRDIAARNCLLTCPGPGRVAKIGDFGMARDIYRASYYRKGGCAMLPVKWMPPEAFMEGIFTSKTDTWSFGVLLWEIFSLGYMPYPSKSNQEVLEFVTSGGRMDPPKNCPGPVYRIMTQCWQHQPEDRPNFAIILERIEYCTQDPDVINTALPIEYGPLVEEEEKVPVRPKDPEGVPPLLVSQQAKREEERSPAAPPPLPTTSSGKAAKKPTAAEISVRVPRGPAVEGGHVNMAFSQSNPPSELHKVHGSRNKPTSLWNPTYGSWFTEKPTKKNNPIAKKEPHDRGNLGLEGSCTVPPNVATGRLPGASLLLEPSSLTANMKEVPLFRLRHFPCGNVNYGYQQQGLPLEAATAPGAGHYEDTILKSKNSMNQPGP

[7] = system: ALK tyrosine kinase receptor (Homo sapiens), Q9UM73 [G1269S]; experiment: Inhibition of ALK G1269S mutant (unknown origin) assessed as residual activity at 1 uM relative to control
ALK tyrosine kinase receptor (Homo sapiens), Q9UM73 [G1269S], sequence (Q9UM73 whole entry G1269S): as the sequence (Q9UM73 whole entry F1174L) above, with L1174F, G1269S counted along it

ALK-KIF5B (Homo sapiens) = ALK-KIF5B (Homo sapiens) (UniProt Q9UM73+P33176); experiment: Inhibition of ALK-KIF5B (unknown origin) assessed as residual activity at 1 uM relative to control; type: protein assay
ALK-KIF5B (Homo sapiens), sequence (P33176 whole entry, looked up): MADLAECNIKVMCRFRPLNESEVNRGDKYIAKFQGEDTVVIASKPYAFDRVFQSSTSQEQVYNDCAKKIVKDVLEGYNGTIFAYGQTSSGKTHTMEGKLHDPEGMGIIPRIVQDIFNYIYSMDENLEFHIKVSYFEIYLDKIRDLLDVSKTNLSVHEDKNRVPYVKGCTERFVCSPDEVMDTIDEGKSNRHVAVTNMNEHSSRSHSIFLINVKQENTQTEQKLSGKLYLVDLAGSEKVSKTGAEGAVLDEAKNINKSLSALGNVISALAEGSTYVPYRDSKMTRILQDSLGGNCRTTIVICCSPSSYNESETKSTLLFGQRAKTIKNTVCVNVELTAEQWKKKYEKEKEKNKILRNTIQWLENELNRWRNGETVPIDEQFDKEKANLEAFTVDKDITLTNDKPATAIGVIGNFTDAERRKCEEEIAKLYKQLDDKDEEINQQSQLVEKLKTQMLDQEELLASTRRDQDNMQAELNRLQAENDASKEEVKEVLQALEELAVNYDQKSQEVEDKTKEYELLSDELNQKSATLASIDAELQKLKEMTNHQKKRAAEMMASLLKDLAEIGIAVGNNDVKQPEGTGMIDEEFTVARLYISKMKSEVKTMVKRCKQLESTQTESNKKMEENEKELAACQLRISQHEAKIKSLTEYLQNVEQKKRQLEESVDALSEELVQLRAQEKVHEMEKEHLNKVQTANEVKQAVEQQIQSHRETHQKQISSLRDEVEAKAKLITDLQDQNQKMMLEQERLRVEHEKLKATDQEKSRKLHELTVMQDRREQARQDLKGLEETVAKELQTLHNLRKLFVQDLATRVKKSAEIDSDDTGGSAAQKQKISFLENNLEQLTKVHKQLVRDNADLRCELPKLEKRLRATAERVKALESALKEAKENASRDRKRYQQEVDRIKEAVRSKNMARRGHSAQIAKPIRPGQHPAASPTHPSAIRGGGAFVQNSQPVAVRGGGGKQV
ALK-KIF5B (Homo sapiens), sequence (Q9UM73 whole entry, looked up): as the sequence (Q9UM73 whole entry F1174L) above, with L1174F counted along it

ALK-TPM3 (Homo sapiens) = ALK-TPM3 (Homo sapiens) (UniProt Q9UM73+P06753); experiment: Inhibition of ALK-TPM3 (unknown origin) assessed as residual activity at 1 uM relative to control; type: protein assay
ALK-TPM3 (Homo sapiens), sequence (P06753 whole entry, looked up): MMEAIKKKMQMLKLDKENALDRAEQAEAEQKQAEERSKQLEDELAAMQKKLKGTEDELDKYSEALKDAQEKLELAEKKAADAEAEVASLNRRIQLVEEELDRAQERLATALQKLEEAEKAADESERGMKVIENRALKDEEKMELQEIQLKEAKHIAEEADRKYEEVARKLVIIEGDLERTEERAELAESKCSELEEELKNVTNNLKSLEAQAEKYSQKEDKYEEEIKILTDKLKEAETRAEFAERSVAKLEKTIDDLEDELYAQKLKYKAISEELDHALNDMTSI
ALK-TPM3 (Homo sapiens), sequence (Q9UM73 whole entry, looked up): as the sequence (Q9UM73 whole entry F1174L) above, with L1174F counted along it

MV4-11 = experiment: Antiproliferative activity against human MV4-11 cells assessed inhibition of cell growth incubated for 72 hrs by CCK-8 assay; type: functional, cell-based; details: MV4-11, 72 h
[8] = Metabolic stability in human liver microsome assessed as parent compound remaining preincubated for 10 mins followed by NADPH addition and measured immediately by LC-MS/MS analysis; type: ADME; details: liver microsomes, read-out: Stability
[9] = Metabolic stability in human liver microsome assessed as parent compound remaining preincubated for 10 mins followed by NADPH addition and measured at 15 mins by LC-MS/MS analysis; type: ADME; details: liver microsomes, time 25 min, read-out: Stability
[10] = Metabolic stability in human liver microsome assessed as parent compound remaining preincubated for 10 mins followed by NADPH addition and measured at 60 mins by LC-MS/MS analysis; type: ADME; details: liver microsomes, time 70 min, read-out: Stability
[11] = Cmax in Sprague-Dawley rat at 2 mg/kg, iv measured upto 24 hrs by LC-MS/MS analysis; type: ADME, organism-based; parameters: time < 24 hrs, dose 2 mg/kg, route iv; details: in vivo
[12] = Cmax in Sprague-Dawley rat at 10 mg/kg, po measured upto 24 hrs by LC-MS/MS analysis; type: ADME, organism-based; parameters: time < 24 hrs, dose 10 mg/kg, route po; details: in vivo
[13] = Half life in Sprague-Dawley rat at 2 mg/kg, iv measured upto 24 hrs by LC-MS/MS analysis; type: ADME, organism-based; details: in vivo
[14] = Tmax in Sprague-Dawley rat at 10 mg/kg, po measured upto 24 hrs by LC-MS/MS analysis; type: ADME, organism-based; details: in vivo
[15] = AUC (0 to t) in Sprague-Dawley rat at 2 mg/kg, iv measured upto 24 hrs by LC-MS/MS analysis; type: ADME, organism-based; parameters: dose 2 mg/kg, time < 24 hrs, route iv; details: in vivo
[16] = MRT (0 to infinity) in Sprague-Dawley rat at 2 mg/kg, iv measured upto 24 hrs by LC-MS/MS analysis; type: ADME, organism-based; details: in vivo
[17] = Toxicity in BALB/c nude mouse xenografted with human MDA-MB-468 cells assessed as change in body weight at 30 mg/kg, iv administered once daily for 21 days […]; type: organism-based; details: in vivo, 504 h, time 21 day

For `CCc1cccc(CC)c1N1CCn2cc(-c3nc(Nc4ccc(N5CCN(C(C)=O)CC5)cc4OC)nc4[nH]ncc34)cc2C1=O`, the Activity [1] was less than 10%, the Activity [2] was less than 10% and the Activity [3] was less than 10%. For the same compound, the Activity [4] was less than 10%, the Activity [5] was less than 10% and the Activity [6] was less than 10%. The Activity [7] was less than 10%, the Activity (ALK-KIF5B (Homo sapiens)) was less than 10% and the Activity (ALK-TPM3 (Homo sapiens)) was less than 10%. It also gave an IC50 (MV4-11) of 823 nM, a remaining at 0 min [8] of 100% and a remaining at 0.25 h [9] of 64.6%. It also gave a remaining at 1 h [10] of 29.4%, a Cmax [11] of 2920 ng/mL and a Cmax [12] of 160 ng/mL. The half-life [13] was 49.5 min, the Tmax [14] was 20 min and the AUC(0-t) at 24 h [15] was 1050 ng·h/mL. The MRT inf [16] was 21.2 min and the Activity [17] was “Non-Toxic”.
